In patent US20240068044A1, “MARKER COMPOSITION FOR PREDICTING PROGNOSIS OF CANCER, METHOD FOR PROGNOSIS OF CANCER AND METHOD FOR PROVIDING INFORMATION FOR DETERMINING STRATEGY OF CANCER TREATMENT” (priority 2021, published 2024):

Test system: gastric cancer patients
Assay: Multivariable Cox proportional analysis of overall survival: adjuvant chemotherapy vs surgery only, Yonsei cohort, within each molecular subtype
Assay type: in vivo
Conditions: multivariate Cox
Excerpt: It has been examined whether the molecular subtype of the present disclosure may predict the response to the systemic therapy. The Yonsei cohort included patients treated prior to establishment of adjuvant chemotherapy as standard of care. Thus, patients who have been treated with one of the following three assisted chemical therapy methods were able to compare patients who have undergone surgery only:
5-Fluorouracil (5-FU) Alone Therapy
5-FU and Platinum Doublet
Treatment of Systemic Therapy of Another Class in Addition to 5-FU
The inventors of the present disclosure performed a multivariable Cox proportional analysis of the overall survival rate, assisted chemical therapy, cancer operation, age, lymphovascular attack and perineuronal attack as covariates within each genetic group.
In Table 3, the hazard ratio (HR) was calculated using age, cancer stage, Lauren type, neural surrounding invasion state, and chemotherapy treatment as a regulator.

## O=c1[nH]cc(F)c(=O)[nH]1 [5-FU alone, 5-Fluorouracil]
Patient Group 1, VS no-chemotherapy
  Hazard Ratio (95% CI): 2.25 (0.61, 8.35)
Patient Group 2, VS no-chemotherapy
  Hazard Ratio (95% CI): 0.37 (0.14, 0.99)
Patient Group 2, VS no-chemotherapy, listed as 5-FU monotherapy
  Hazard Ratio (95% CI): 0.37
Patient Group 3, VS no-chemotherapy
  Hazard Ratio (95% CI): 0.99 (0.41, 2.38)
Patient Group 4, VS no-chemotherapy
  Hazard Ratio (95% CI): 0.73 (0.30, 1.79)
